Results from patent publication US11833144B2, “Treating autoimmune disease” (Mayo Foundation for Medical Education and Research, priority 2020, dated 2023).

What was measured:
[1] = test system: human B cells; test: Human naive B cell proliferation (thymidine incorporation) and CD27 expression; type: cell-based
Procedure: PBMCs were isolated from the medical waste following apheresis collection of platelets. Briefly, blood was diluted 1:3 using PBS. The diluted blood was then overlaid with Ficoll-Paque PLUS density gradient medium (GE Healthcare). The gradient was centrifuged at 400 g with no brake for 25 minutes at room temperature. The PBMC interphase layer was collected, washed with PBS with 0.1% BSA/2 mM of EDTA. Naive B cells (CD19^+CD27^−IgD^+) were enriched using Human naive B cell negative selection kit (Stemcell Technologies). Mouse B cells were isolated from pooled single cell suspensions of spleen and peripheral lymph nodes using CD19 Microbeads (Miltenyi) or Mouse B cell Isolation Kit (Stemcell Technologies). B cells were stimulated with LPS (10 μg/mL; Sigma-Aldrich) and recombinant IL-4 cytokine (10 ng/mL; Tonbo Bioscience) with or without SCD inhibitor SSI-4, and proliferation was measured by dilution of CellTrace Violet proliferation dye (Thermo Fisher Scientific). B cells were also stimulated with anti-IgM (10 μg/mL; Jackson ImmunoResearch), anti-CD40 (10 μg/mL; BioXcell) and IL-4 (10 ng/mL; Tonbo Bioscience), or TLR ligand CpG (2.5 μM; IDT), recombinant IL-4 and IL-5 (10 ng/mL; Tonbo Bioscience) cytokines. To test the function of monounsaturated and saturated fatty acids, B cells were activated in presence of exogenous fatty acid-BSA conjugate. Palmitoleic acid (NU-CHEK PREP, INC), palmitic acid (NU-CHEK PREP, INC), stearic acid (NU-CHEK PREP, INC) were conjugated with fatty acid free BSA (Sigma-Aldrich) as described elsewhere (Wang et al., Immunity 35:871-882 (2011)). Human B cells were activated with CpG OND2006 (2.5 μM; IDT), recombinant human cytokine IL-10 ([…]; Peprotech), IL-15 (10 ng/mL; Peprotech), IL-4 (10 ng/mL; Biolegend), IL-2 (10 unit/mL) and anti-human CD40 (1 μg/mL; BioXcell). Human B cell proliferation was measured by ^3[H]-thymidine incorporation (1 μCi/mL) (American Radiolabeled Chemicals).

[2] = test system: SCD; test: 13C-glucose tracing of de novo fatty acid biosynthesis in activated B cells (NEFA isotopomer analysis); type: cell-based, mouse; details: 48 hours
Procedure: Briefly, 5×10^6 activated B cells were washed with PBS and re-cultured in glucose-free medium RPMI medium containing 10% dialyzed FBS and uniformly labeled [^13C]-glucose (2 g/L; Sigma-Aldrich) for 24 and 48 hours. Cell pellets were lysed in 1×PBS prior to lipid extraction. The extract was dried down and brought up in running buffer before underwent analysis on an Agilent 6550 iFunnel Q-TOF mass spectrometer/1290 Infinity liquid chromatographic system. A mixed standard containing 14 fatty acids was also run at the beginning and at the end of the sequence to generate retention time lock as well as unlabeled mass spectrum for each fatty acid. The mass spec was operating in negative electrospray ionization. Data was acquired in scan mode from 50-1700 m/z range. Data analysis was performed on Agilent Technologies software including Profinder, Mass Profiler Professional (MPP) and Vista Flux. Briefly, the features extracted from the data files were aligned using Profinder and converted to a compound exchange file (CEF) format to import in the MPP. The list was filtered for frequency and abundance to identify features that are present in all samples and with high abundance. A library was created using mass, molecular formula, and retention time of these features and used in conjunction with the Vista Flux software to determine the presence of isotopologue in individual feature. […]

[3] = test system: activated mouse B cells; test: Transmission electron microscopy of autophagosomes in activated mouse B cells; type: cell-based; details: SSI-4 treated B cells
Procedure: Cells were fixed in Trumps fixative (pH 7.2) at 4° C. overnight, spun down and the supernatant removed. They were re-suspended in 2% agarose which was allowed to cool and solidify. The cells in agarose were then post-fixed in 1% OsO4, dehydrated through a graded series of ethanols and embedded in Spurr resin. One hundred nm […] ultra-thin sections were mounted on 200-mesh copper grids, post-stained with lead citrate, and observed under a JEOL JEM-1400 transmission electron microscope at 80 kV.

[4] = test system: mice immunized with NP-OVA; test: NP-OVA immunization of mice fed SSI-4 chow: humoral immune response; type: in vivo, mouse
[5] = test system: GFP-LC3; test: Flow cytometry of GFP-LC3 in activated B cells from GFP-LC3 reporter mouse; type: cell-based; details: SSI-4 ex vivo
Procedure: For analysis of surface markers, cells were stained in PBS containing 1% (w/v) bovine serum albumin on ice for 30 minutes, with anti-IgG1 (RMG1-1, Biolegend), anti-CD19 (ID3, Biolegend) anti-B220 (RA3-6B2, Biolegend), anti-CD4 (GK1.5, Biolegend), anti-CD8 (53-6.7, Biolegend), anti-CD25 (PC16, Biolegend), anti-GL7 (GL-7, Biolegend), anti-CD95 (Jo2, BD Biosciences), anti-CD138 (281-2, Biolegend), anti-IgD (11-26c.2a, Biolegend), anti-PD-1 (J43, ThermoFisher), anti-IgM (II/41, ThermoFisher). Antigen specific GC response was detected with tetramer NP-phycoerythrin conjugated with PE (Biosearch Technologies). CXCR5 was stained with biotinylated anti-CXCR5 (2G8) followed by staining with streptavidin-conjugated PE (both from BD Biosciences). Cell viability was assessed using the Fixable Dye Ghost 510 (Tonbo Bioscience) or Annexin V cell apoptosis kit with 7-AAD (ThermoFisher) following the manufacturer's protocol. Phosflow staining for phospho-S6 (S235/236) was performed using Phosflow Fix/Perm kit (BD Biosciences). Mitochondrial potential was measured by staining with 20 nM TMRM (ThermoFisher) following manufacturer's instructions. Flow cytometry was performed on the LSR II, LSR Fortessa (BD Biosciences) or Attune NxT (ThermoFisher) cytometers, and analysis was performed using FlowJo software (Tree Star).

| SMILES | restoration of human B cell proliferation and CD27 expression upon SSI-4 treatment ([1]; SSI-4 (10 nM) plus exogenous OA) | human B cell activation measured by CD27 expression, exogenous OA alone ([1]; flow cytometry MFI) | human B cell proliferation, exogenous OA alone ([1]; thymidine incorporation) | 13C incorporation from glucose in OA, PO and vaccenic acid [2] | 13C incorporation from glucose into SA, PA and myristic acid [2] | autophagosome structures by transmission electron microscopy [3] | B220intCD138+ plasmablast generation ([4]; NP-OVA immunized, SSI-4 chow) | antigen specific NP+ GC B cells ([4]; NP-OVA immunized, SSI-4 chow) | splenic GC formation ([4]; NP-OVA immunized, SSI-4 chow) | OA level in sera of immunized mice ([4]; NP-OVA immunized, SSI-4 chow, GC-MS) | mTORC1 activity (p-S6 MFI) in splenic B cells in vivo ([4]; SSI-4 chow (30 mg/kg), NP-OVA immunization for one week) | percentage of Tfh cells after immunization ([4]; SSI-4 chow vs control chow) | production of anti-NP specific IgM antibodies ([4]; serum ELISA) | production of anti-NP specific total IgG and IgG1 antibodies ([4]; serum ELISA) | GFP-LC3 expression (MFI) [5] |
| --- | --- | --- | --- | --- | --- | --- | --- | --- | --- | --- | --- | --- | --- | --- | --- |
| CCCCCCCC/C=C\CCCCCCCC(=O)O [OA, oleic acid] | restored B cell proliferation and CD27 expression | promoted | promoted human B cell proliferation |  |  |  |  |  |  |  |  |  |  |  |  |
| CNC(=O)c1ccnc(NC(=O)N2CCC(Oc3ccccc3Cl)CC2)c1 [SSI-4, 2-{[4-(2-Chlorophenoxy)piperidine-1-carbonyl]amino}-N-methylpyridine-4-carboxamide] |  |  |  | all abolished | largely unaffected | increased structures with double layer membrane | not affected | reduced | significantly suppressed | substantially reduced | suppressed mTORC1 activity | comparable | but not IgM | significantly reduced | higher LC3 expression |
